From patent US20060069132A1, “Azolecarboxamide herbicides” (priority 2004, published 2006)

What was measured:
rice = assay: Test B flooded paddy test; format: in vivo, Oryza sativa; details: scale 0 to 100 (0 no effect, 100 complete control)
Outline: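 Paddy species grown to the 2-leaf stage under flooding; blackgrass sprayed postemergence at 2–18 cm (1- to 4-leaf stage). Plants kept in a greenhouse for 13 to 15 days, then visually rated against controls on 0 (no effect) to 100 (complete control).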

morningglory = assay: Test B pre-/postemergence herbicide test; format: in vivo, Ipomoea coccinea; details: for Plant response rating (0 to 100 scale), Morningglory: 0 is no effect, 100 is complete control, preemergence
Outline: (§1)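 Seeds were planted and treated preemergence with compounds formulated in a non-phytotoxic solvent mixture containing surfactant, while plants at the 1- to 4-leaf stage (2 to 18 cm) received postemergence sprays. Flooded paddy plants were grown to the 2-leaf stage. After 13 to 15 days in a greenhouse, injury was visually rated 0–100 against untreated controls.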

large crabgrass = assay: Test B pre-/postemergence herbicide test; format: in vivo, Digitaria sanguinalis; details: for Plant response rating (0 to 100 scale), Crabgrass, Large: 0 is no effect, 100 is complete control, preemergence
Outline: (§2)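 Test chemicals in a non-phytotoxic solvent mixture with surfactant were applied preemergence to seeded species and postemergence to plants 2-18 cm tall (1- to 4-leaf stage); rice and barnyardgrass were also tested in a flooded paddy at the 2-leaf stage. Visual rating versus controls after 13-15 days in greenhouse, scale 0 (no effect) to 100 (complete control).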

corn = assay: Test B pre-/postemergence herbicide test; format: in vivo, Zea mays; details: for Plant response rating (0 to 100 scale), Corn: 0 is no effect, 100 is complete control, preemergence
Outline: as §2

pigweed = assay: Test B pre-/postemergence herbicide test; format: in vivo, Amaranthus retroflexus; details: for Plant response rating (0 to 100 scale), Pigweed: 0 is no effect, 100 is complete control, preemergence
Outline: as §2

wheat = assay: Test B postemergence herbicide test; format: in vivo, Triticum aestivum; set-up: key to Wheat plant response rating: 0 = no effect, 100 = complete control
Outline: (§3)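 Postemergence plants were sprayed with formulated test chemicals at 2 to 18 cm height (1- to 4-leaf stage); paddy species were grown to the 2-leaf stage. After 13 to 15 days in a greenhouse, injury was rated visually against untreated controls on a 0–100 scale (0 = no effect, 100 = complete control).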

barnyardgrass [1] = assay: Test B pre-/postemergence herbicide test; format: in vivo, Echinochloa crus-galli; details: for Plant response rating (0 to 100 scale), Barnyardgrass: 0 is no effect, 100 is complete control, preemergence; for Barnyardgrass plant response rating: scale 0 (no effect) to 100 (complete control)
Outline: as §1

wild oat = assay: Test B postemergence herbicide test; format: in vivo, Avena fatua
Outline: as §3

barnyardgrass [2] = assay: Test B flooded paddy test; format: in vivo, Echinochloa crus-galli; details: scale 0 to 100 (0 no effect, 100 complete control)
Outline: as §3

lambsquarters = assay: Test B pre-/postemergence herbicide test; format: in vivo, Chenopodium album
Outline: as §2

cocklebur = assay: Test B pre-/postemergence herbicide test; format: in vivo, Xanthium strumarium; details: for Plant response rating (0 to 100 scale), Cocklebur: 0 is no effect, 100 is complete control, preemergence
Outline: as §1

velvetleaf = assay: Test B pre-/postemergence herbicide test; format: in vivo, Abutilon theophrasti; details: for Plant response rating (0 to 100 scale), Velvetleaf: 0 is no effect, 100 is complete control, preemergence
Outline: as §2

[3] = tested on: small flower umbrella sedge; assay: Test B flooded paddy test; format: in vivo, Cyperus difformis; details: scale 0 to 100 (0 no effect, 100 complete control)
Outline: as §3

Surinam grass = assay: Test B pre-/postemergence herbicide test; format: in vivo, Urochloa decumbens; details: for Plant response rating (0 to 100 scale), Surinam Grass: 0 is no effect, 100 is complete control, preemergence
Outline: as §2

blackgrass = assay: Test B postemergence herbicide test; format: in vivo, Alopecurus myosuroides
Outline: as §3

ducksalad = assay: Test B flooded paddy test; format: in vivo, Heteranthera limosa; details: scale 0 to 100 (0 no effect, 100 complete control)
Outline: as §3

giant foxtail = assay: Test B pre-/postemergence herbicide test; format: in vivo, Setaria faberi; details: for Plant response rating (0 to 100 scale), Foxtail, Giant: 0 is no effect, 100 is complete control, preemergence
Outline: as §2

[4] = 125 g ai/ha, visual rating, scale 0 (no effect) to 100 (complete control), postemergence
[5] = Postemergence, 500 g ai/ha, scale 0 (no effect) to 100 (complete control)
[6] = 500 g ai/ha, scale 0 to 100, 0 no effect, 100 complete control, preemergence
[7] = 125 g ai/ha, visual rating, postemergence
[8] = postemergence, 125 g ai/ha, scale 0 to 100

CCNC(=O)c1ccc(F)c(NC(=O)c2nn(C(C)C)nc2C)c1 [Compound 401]
Rice plant response rating (rice; 1000 g ai/ha): 20 | Plant response rating (0 to 100 scale), Morningglory (morningglory; 125 g ai/ha): 0 | Morningglory plant response rating (morningglory; [4]): 0 | Morningglory plant response rating (morningglory; [5]): 0 | Plant response rating (0 to 100 scale), Crabgrass, Large (large crabgrass; 125 g ai/ha): 0 | Crabgrass, Large plant response rating (large crabgrass; [4]): 0 | Crabgrass, Large plant response rating (large crabgrass; [5]): 0 | Plant response rating (0 to 100 scale), Corn (corn; 125 g ai/ha): 0 | Corn plant response rating (corn; [4]): 0 | Corn plant response rating (corn; [5]): 0 | Plant response rating (0 to 100 scale), Pigweed (pigweed; 125 g ai/ha): 0 | Pigweed plant response rating (pigweed; [4]): 0 | Pigweed plant response rating (pigweed; [5]): 0 | Wheat plant response rating (wheat; [4]): 0 | Wheat plant response rating (wheat; [6]): 0 | Wheat plant response rating (wheat; [5]): 0 | Plant response rating (0 to 100 scale), Barnyardgrass (barnyardgrass [1]; 125 g ai/ha): 0 | Barnyardgrass plant response rating (barnyardgrass [1]; [7]): 0 | Barnyardgrass plant response rating (barnyardgrass [1]; Postemergence, 500 g ai/ha): 0 | Oat, Wild plant response rating (wild oat; [4]): 0 | Oat, Wild plant response rating (wild oat; [5]): 0 | Barnyardgrass plant response rating (barnyardgrass [2]; 1000 g ai/ha): 0 | Plant response rating (0 to 100 scale), Lambsquarters (lambsquarters; 125 g ai/ha, 0 is no effect, 100 is complete control, preemergence): 0 | Lambsquarters plant response rating (lambsquarters; [4]): 0 | Lambsquarters plant response rating (lambsquarters; [5]): 0 | Plant response rating (0 to 100 scale), Cocklebur (cocklebur; 125 g ai/ha): 0 | Cocklebur plant response rating (cocklebur; [4]): 0 | Cocklebur plant response rating (cocklebur; [5]): 0 | Plant response rating (0 to 100 scale), Velvetleaf (velvetleaf; 125 g ai/ha): 0 | Velvetleaf plant response rating (velvetleaf; [4]): 0 | Velvetleaf plant response rating (velvetleaf; [5]): 0 | Sedge, Umbrella plant response rating ([3]; 1000 g ai/ha): 0 | Plant response rating (0 to 100 scale), Surinam Grass (Surinam grass; 125 g ai/ha): 0 | Surinam Grass plant response rating (Surinam grass; [4]): 0 | Surinam Grass plant response rating (Surinam grass; [5]): 0 | Blackgrass plant response rating (blackgrass; [4]): 0 | Blackgrass plant response rating (blackgrass; [5]): 0 | Ducksalad plant response rating (ducksalad; 1000 g ai/ha): 0 | Plant response rating (0 to 100 scale), Foxtail, Giant (giant foxtail; 125 g ai/ha): 0 | Foxtail, Giant plant response rating (giant foxtail; [4]): 0 | Foxtail, Giant plant response rating (giant foxtail; [5]): 0

C=CCNC(=O)c1cccc(NC(=O)c2nn(C(C)(C)C)nc2C)n1 [Compound 438]
Rice plant response rating (rice; 125 g ai/ha): 0 | Morningglory plant response rating (morningglory; [5]): 50 | Morningglory plant response rating (morningglory; [8]): 40 | Crabgrass, Large plant response rating (large crabgrass; [5]): 0 | Crabgrass, Large plant response rating (large crabgrass; [8]): 0 | Corn plant response rating (corn; [5]): 40 | Corn plant response rating (corn; [8]): 30 | Pigweed plant response rating (pigweed; [5]): 30 | Pigweed plant response rating (pigweed; [8]): 10 | Wheat plant response rating (wheat; [6]): 0 | Wheat plant response rating (wheat; [5]): 30 | Wheat plant response rating (wheat; [8]): 20 | Barnyardgrass plant response rating (barnyardgrass [1]; Postemergence, 125 g ai/ha): 0 | Barnyardgrass plant response rating (barnyardgrass [1]; Postemergence, 500 g ai/ha): 0 | Oat, Wild plant response rating (wild oat; [5]): 40 | Oat, Wild plant response rating (wild oat; [8]): 30 | Barnyardgrass plant response rating (barnyardgrass [2]; 125 g ai/ha): 0 | Lambsquarters plant response rating (lambsquarters; [5]): 10 | Lambsquarters plant response rating (lambsquarters; [8]): 10 | Cocklebur plant response rating (cocklebur; [5]): 20 | Cocklebur plant response rating (cocklebur; [8]): 20 | Velvetleaf plant response rating (velvetleaf; [5]): 30 | Velvetleaf plant response rating (velvetleaf; [8]): 0 | Sedge, Umbrella plant response rating ([3]; 125 g ai/ha): 0 | Surinam Grass plant response rating (Surinam grass; [5]): 0 | Surinam Grass plant response rating (Surinam grass; [8]): 0 | Blackgrass plant response rating (blackgrass; [5]): 30 | Blackgrass plant response rating (blackgrass; [8]): 20 | Ducksalad plant response rating (ducksalad; 125 g ai/ha): 0 | Foxtail, Giant plant response rating (giant foxtail; [5]): 20 | Foxtail, Giant plant response rating (giant foxtail; [8]): 0

CCOC(=O)c1cccc(NC(=O)c2nn(C(C)C)nc2C)c1 [Compound 397]
Rice plant response rating (rice; 1000 g ai/ha): 10 | Plant response rating (0 to 100 scale), Morningglory (morningglory; 125 g ai/ha): 0 | Morningglory plant response rating (morningglory; [4]): 0 | Morningglory plant response rating (morningglory; [5]): 10 | Plant response rating (0 to 100 scale), Crabgrass, Large (large crabgrass; 125 g ai/ha): 0 | Crabgrass, Large plant response rating (large crabgrass; [4]): 0 | Crabgrass, Large plant response rating (large crabgrass; [5]): 10 | Plant response rating (0 to 100 scale), Corn (corn; 125 g ai/ha): 0 | Corn plant response rating (corn; [4]): 0 | Corn plant response rating (corn; [5]): 10 | Plant response rating (0 to 100 scale), Pigweed (pigweed; 125 g ai/ha): 0 | Pigweed plant response rating (pigweed; [4]): 0 | Pigweed plant response rating (pigweed; [5]): 0 | Wheat plant response rating (wheat; [4]): 0 | Wheat plant response rating (wheat; [6]): 0 | Wheat plant response rating (wheat; [5]): 10 | Plant response rating (0 to 100 scale), Barnyardgrass (barnyardgrass [1]; 125 g ai/ha): 0 | Barnyardgrass plant response rating (barnyardgrass [1]; [7]): 0 | Barnyardgrass plant response rating (barnyardgrass [1]; Postemergence, 500 g ai/ha): 0 | Oat, Wild plant response rating (wild oat; [4]): 0 | Oat, Wild plant response rating (wild oat; [5]): 0 | Barnyardgrass plant response rating (barnyardgrass [2]; 1000 g ai/ha): 0 | Lambsquarters plant response rating (lambsquarters; [4]): 0 | Lambsquarters plant response rating (lambsquarters; [5]): 0 | Plant response rating (0 to 100 scale), Cocklebur (cocklebur; 125 g ai/ha): 0 | Cocklebur plant response rating (cocklebur; [4]): 0 | Cocklebur plant response rating (cocklebur; [5]): 0 | Plant response rating (0 to 100 scale), Velvetleaf (velvetleaf; 125 g ai/ha): 0 | Velvetleaf plant response rating (velvetleaf; [4]): 10 | Velvetleaf plant response rating (velvetleaf; [5]): 50 | Sedge, Umbrella plant response rating ([3]; 1000 g ai/ha): 70 | Plant response rating (0 to 100 scale), Surinam Grass (Surinam grass; 125 g ai/ha): 0 | Surinam Grass plant response rating (Surinam grass; [4]): 10 | Surinam Grass plant response rating (Surinam grass; [5]): 10 | Blackgrass plant response rating (blackgrass; [4]): 0 | Blackgrass plant response rating (blackgrass; [5]): 0 | Ducksalad plant response rating (ducksalad; 1000 g ai/ha): 0 | Plant response rating (0 to 100 scale), Foxtail, Giant (giant foxtail; 125 g ai/ha): 0 | Foxtail, Giant plant response rating (giant foxtail; [4]): 10 | Foxtail, Giant plant response rating (giant foxtail; [5]): 40
